Earlier results, collected in US11612669B2, “Disinfection method and apparatus” (University of Washington, priority 2020, dated 2023).

System: microbes, viruses, and bacteria in blood plasma
Conditions: one micromolar solution, white light at 45,000 lux for more than one hour

For `CN(C)c1ccc2nc3ccc(=[N+](C)C)cc-3sc2c1` [methylene blue], the “inactivation of microbes, viruses, and bacteria” value is given as “can inactivate microbes, viruses, and bacteria”.
